# From patent US11174248B2, “Indazolyl-spiro[2.3]hexane-carbonitrile derivatives as LRRK2 inhibitors, pharmaceutical compositions, and uses thereof” (Merck Sharp & Dohme Corp., priority 2017, dated 2021)
# pIC50: −log10 of the molar value.
# Molecular target: GST-tagged truncated human mutant G2019S LRRK2 (Homo sapiens (Human), UniProt Q5S007, G2019S)
# Assay: LRRK2 Km ATP LanthaScreen Assay
# Type: biochemical
# Details: 134 μM ATP (Km ATP); fluorescein-labeled LRRKtide substrate; mean IC50 values
# Method: Unless otherwise noted, all LRRK2 IC50 data presented in tables refers to the LRRK2 Km ATP LanthaScreen™ Assay that is described in the Biological Assay section.
# Biological Assay: LRRK2 Km ATP LanthaScreen™ Assay
# The LRRK2 kinase activity reported herein as IC50 values was determined with LanthaScreen™ technology from Life Technologies Corporation (Carlsbad, Calif.) using GST-tagged truncated human mutant G2019S LRRK2 in the presence of the fluorescein-labeled peptide substrate LRRKtide, also from Life Technologies. The data presented for the Km ATP LanthaScreen™ Assay represents mean IC50 values based on several test results and may have reasonable deviations depending on the specific conditions and reagents used. Assays were performed in the presence of 134 μM ATP (Km ATP). Upon completion, the assay was stopped and phosphorylated substrate detected with a terbium (Tb)-labeled anti-pERM antibody (cat. no. PV4898). The compound dose response was prepared by diluting a 10 mM stock of compound to a maximum concentration of 9.99 μM in 100% dimethylsulfoxide followed by custom fold serial dilution in dimethylsulfoxide nine times. Twenty nanoliters of each dilution was spotted via a Labcyte Echo onto a 384-well black-sided plate (Corning 3575) followed by 15 μl of a 1.25 nM enzyme solution in 1× assay buffer (50 mM Tris pH 8.5, 10 mM MgCl2, 0.01% Brij-35, 1 mM EGTA, 2 mM dithiothreitol, 0.05 mM sodium orthovanadate) Following a 15-minute incubation at room temperature, the kinase reaction was started with the addition of 5 μl of 400 nM fluorescein-labeled LRRKtide peptide substrate and 134 μM ATP solution in 1× assay buffer. The reaction was allowed to progress at ambient temperature for 90 minutes. The reaction was then stopped by the addition of 20 μl of TR-FRET Dilution Buffer (Life Technologies, Carlsbad, Calif.) containing 2 nM Tb-labeled anti-phospho LRRKtide antibody and 10 mM EDTA (Life Technologies, Carlsbad, Calif.). After an incubation of 1 hour at room temperature, the plate was read on an EnVision multimode plate reader (Perkin Elmer, Waltham, Mass.) with an excitation wavelength of 337 nm (Laser) and a reading emission at both 520 and 495 nm. Compound IC50s were interpolated from nonlinear regression best fits of the log of the final compound concentration, plotted as a function of the 520/495-nm emission ratio using Activity base. Abase uses a 4 parameter (4P) logistic fit based on the Levenberg-Marquardt algorithm.
# GST-tagged truncated human mutant G2019S LRRK2, sequence (Q5S007 970-2527 G2019S): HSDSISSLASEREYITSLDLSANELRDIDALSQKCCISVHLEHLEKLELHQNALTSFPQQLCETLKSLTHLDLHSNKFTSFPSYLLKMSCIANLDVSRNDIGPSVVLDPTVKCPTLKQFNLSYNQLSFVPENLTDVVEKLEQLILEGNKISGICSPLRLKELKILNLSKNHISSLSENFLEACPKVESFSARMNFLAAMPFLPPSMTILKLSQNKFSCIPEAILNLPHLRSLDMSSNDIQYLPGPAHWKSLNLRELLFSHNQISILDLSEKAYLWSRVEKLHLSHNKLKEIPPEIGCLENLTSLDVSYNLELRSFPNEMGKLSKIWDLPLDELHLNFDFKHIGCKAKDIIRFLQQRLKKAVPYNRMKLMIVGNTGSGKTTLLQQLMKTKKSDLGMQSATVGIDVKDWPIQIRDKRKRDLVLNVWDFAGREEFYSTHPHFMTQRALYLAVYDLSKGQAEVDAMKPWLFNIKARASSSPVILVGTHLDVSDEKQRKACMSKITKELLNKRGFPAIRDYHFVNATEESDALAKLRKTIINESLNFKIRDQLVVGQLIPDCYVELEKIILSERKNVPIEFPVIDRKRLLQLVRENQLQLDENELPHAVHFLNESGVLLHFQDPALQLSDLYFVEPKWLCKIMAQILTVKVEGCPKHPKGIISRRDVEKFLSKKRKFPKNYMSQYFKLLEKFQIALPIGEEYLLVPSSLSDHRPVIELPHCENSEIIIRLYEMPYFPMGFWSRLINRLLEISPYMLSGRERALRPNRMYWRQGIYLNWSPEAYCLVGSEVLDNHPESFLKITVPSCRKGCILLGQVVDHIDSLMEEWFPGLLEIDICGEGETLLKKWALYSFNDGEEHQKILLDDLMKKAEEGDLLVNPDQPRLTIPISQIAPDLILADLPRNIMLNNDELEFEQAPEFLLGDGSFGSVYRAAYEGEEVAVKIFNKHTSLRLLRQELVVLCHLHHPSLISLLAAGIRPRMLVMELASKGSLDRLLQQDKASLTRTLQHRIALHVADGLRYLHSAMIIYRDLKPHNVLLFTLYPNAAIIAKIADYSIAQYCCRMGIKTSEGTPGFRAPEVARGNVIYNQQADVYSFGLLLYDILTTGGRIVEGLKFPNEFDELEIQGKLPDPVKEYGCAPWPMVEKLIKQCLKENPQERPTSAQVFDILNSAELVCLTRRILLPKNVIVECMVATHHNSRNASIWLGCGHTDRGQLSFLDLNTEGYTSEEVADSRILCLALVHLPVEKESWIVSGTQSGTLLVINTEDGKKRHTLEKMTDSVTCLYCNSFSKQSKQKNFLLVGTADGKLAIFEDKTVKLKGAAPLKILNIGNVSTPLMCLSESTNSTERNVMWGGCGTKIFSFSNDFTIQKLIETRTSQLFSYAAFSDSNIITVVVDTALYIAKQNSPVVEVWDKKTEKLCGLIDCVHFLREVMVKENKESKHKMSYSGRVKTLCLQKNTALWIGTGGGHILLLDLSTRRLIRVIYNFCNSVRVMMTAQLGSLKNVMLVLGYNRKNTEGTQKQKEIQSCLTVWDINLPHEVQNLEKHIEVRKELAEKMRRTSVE
row,SMILES,pIC50
1,"CC(C)(O)[C@@H]1CCN(c2cc(-n3ncc4ccc(C5(C#N)CC6(CC6)C5)cc43)ncn2)C1 [Example 11, (R)-5-(1-(6-(3-(2-hydroxypropan-2-yl)pyrrolidin-1-yl)pyrimidin-4-yl)-1H-indazol-6-yl)spiro[2.3]hexane-5-carbonitrile]",9.05
2,"CC(C)(O)C12CC(C1)N(c1cc(-n3ncc4ccc(C5(C#N)CC6(CC6)C5)cc43)ncn1)C2 [Example 12, 5-(1-(6-(4-(2-hydroxypropan-2-yl)-2-azabicyclo[2.1.1]hexan-2-yl)pyrimidin-4-yl)-1H-indazol-6-yl)spiro[2.3]hexane-5-carbonitrile]",8.59
3,"C[C@H]1CN(c2cc(-n3ncc4ccc(C5(C#N)CC6(CC6)C5)cc43)ncn2)CCN1C1COC1 [Example 13, (S)-5-(1-(6-(3-methyl-4-(oxetan-3-yl)piperazin-1-yl)pyrimidin-4-yl)-1H-indazol-6-yl)spiro[2.3]hexane-5-carbonitrile]",9.00
4,"N#CC1(c2ccc3cnn(-c4cc(N5CCO[C@H](CO)C5)ncn4)c3c2)CC2(CC2)C1 [Example 14, (S)-5-(1-(6-(2-(hydroxy-methyl)morpholino)pyrimidin-4-yl)-1H-indazol-6-yl)spiro[2.3]hexane-5-carbonitrile]",8.54
5,"C[C@@H]1CN(c2cc(-n3ncc4ccc(C5(C#N)CC6(CC6)C5)cc43)ncn2)C[C@H](C)[C@]1(C)O [Example 17, 5-(1-(6-((3S,4s,5R and 3R,4s,5S)-4-hydroxy-3,4,5-trimethylpiperidin-1-yl)pyrimidin-4-yl)-1H-indazol-6-yl)spiro[2.3]hexane-5-carbonitrile]",8.05
6,"CC(C)(O)C12CC(C1)N(c1cc(-n3ncc4cnc(C5(C#N)CC6(CC6)C5)cc43)ncn1)C2 [Example 18, 5-(1-(6-(4-(2-hydroxypropan-2-yl)-2-azabicyclo[2.1.1]hexan-2-yl)pyrimidin-4-yl)-1H-pyrazolo[4,3-c]pyridin-6-yl)spiro[2.3]hexane-5-carbonitrile]",7.72
7,"CC(C)(O)[C@@H]1CCN(c2cc(-n3ncc4cnc(C5(C#N)CC6(CC6)C5)cc43)ncn2)C1 [Example 19, (R)-5-(1-(6-(3-(2-hydroxypropan-2-yl)pyrrolidin-1-yl)pyrimidin-4-yl)-1H-pyrazolo[4,3-c]pyridin-6-yl)spiro[2.3]hexane-5-carbonitrile]",7.97
8,"COCc1nc(N2CC3(C(C)(C)O)CC2C3)cc(-n2ncc3ccc(C4(C#N)CC5(CC5)C4)cc32)n1 [Example 20, 5-(1-(6-(4-(2-hydroxypropan-2-yl)-2-azabicyclo[2.1.1]hexan-2-yl)-2-(methoxy-methyl)pyrimidin-4-yl)-1H-indazol-6-yl)spiro[2.3]hexane-5-carbonitrile]",7.79
9,"COCc1nc(N2CCN(C3COC3)[C@@H](C)C2)cc(-n2ncc3ccc(C4(C#N)CC5(CC5)C4)cc32)n1 [Example 21, (S)-5-(1-(2-(methoxymethyl)-6-(3-methyl-4-(oxetan-3-yl)piperazin-1-yl)pyrimidin-4-yl)-1H-indazol-6-yl)spiro[2.3]hexane-5-carbonitrile]",7.96
10,"CC(C)(O)C1CN(c2cc(-n3ncc4ccc(C5(C#N)CC6(CC6)C5)cc43)ncn2)C1 [Example 24, 5-(1-(6-(3-(2-hydroxypropan-2-yl)azetidin-1-yl)pyrimidin-4-yl)-1H-indazol-6-yl)spiro[2.3]hexane-5-carbonitrile]",8.59
11,"CC1(O)CN(c2cc(-n3ncc4ccc(C5(C#N)CC6(CC6)C5)cc43)ncn2)C1 [Example 25, 5-(1-(6-(3-hydroxy-3-methylazetidin-1-yl)pyrimidin-4-yl)-1H-indazol-6-yl)spiro[2.3]hexane-5-carbonitrile]",8.54
12,"COC1(C)CN(c2cc(-n3ncc4ccc(C5(C#N)CC6(CC6)C5)cc43)ncn2)C1 [Example 26, 5-(1-(6-(3-methoxy-3-methylazetidin-1-yl)pyrimidin-4-yl)-1H-indazol-6-yl)spiro[2.3]hexane-5-carbonitrile]",8.37
13,"N#CC1(c2ccc3cnn(-c4cc(N5CC(O)(C6CC6)C5)ncn4)c3c2)CC2(CC2)C1 [Example 27, 5-(1-(6-(3-cyclopropyl-3-hydroxyazetidin-1-yl)pyrimidin-4-yl)-1H-indazol-6-yl)spiro[2.3]hexane-5-carbonitrile]",8.13
14,"CN1CCOC2(C1)CN(c1cc(-n3ncc4ccc(C5(C#N)CC6(CC6)C5)cc43)ncn1)C2 [Example 28, 5-(1-(6-(8-methyl-5-oxa-2,8-diazaspiro[3.5]nonan-2-yl)pyrimidin-4-yl)-1H-indazol-6-yl)spiro[2.3]hexane-5-carbonitrile]",8.89
15,"CNc1nc(N2CC3(C(C)(C)O)CC2C3)cc(-n2ncc3ccc(C4(C#N)CC5(CC5)C4)cc32)n1 [Example 29, 5-(1-(6-(4-(2-hydroxypropan-2-yl)-2-azabicyclo[2.1.1]hexan-2-yl)-2-(methylamino)pyrimidin-4-yl)-1H-indazol-6-yl)spiro[2.3]hexane-5-carbonitrile]",7.78
16,"COc1nc(N2CC3(C(C)(C)O)CC2C3)cc(-n2ncc3ccc(C4(C#N)CC5(CC5)C4)cc32)n1 [Example 30, 5-(1-(6-(4-(2-hydroxypropan-2-yl)-2-azabicyclo[2.1.1]hexan-2-yl)-2-methoxypyrimidin-4-yl)-1H-indazol-6-yl)spiro[2.3]hexane-5-carbonitrile]",7.91
17,"C[C@H]1CN(c2cc(-n3ncc4ccc(C5(C#N)CC6(CC6)C5)cc43)ccn2)CCN1C1COC1 [Example 31, (S)-5-(1-(2-(3-methyl-4-(oxetan-3-yl)piperazin-1-yl)pyridin-4-yl)-1H-indazol-6-yl)spiro[2.3]hexane-5-carbonitrile]",7.95
18,"N#CC1(c2ccc3cnn(-c4ccnc(N5CC6(CO)CC5C6)c4)c3c2)CC2(CC2)C1 [Example 32, 5-(1-(2-(4-(hydroxymethyl)-2-azabicyclo[2.1.1]hexan-2-yl)pyridin-4-yl)-1H-indazol-6-yl)spiro[2.3]hexane-5-carbonitrile]",8.00
19,"CC1(O)CC2(CN(c3cc(-n4ncc5ccc(C6(C#N)CC7(CC7)C6)cc54)ncn3)C2)C1 (centres unmarked) [Example 33, 5-(1-(6-(6-hydroxy-6-methyl-2-azaspiro[3.3]heptan-2-yl)pyrimidin-4-yl)-1H-indazol-6-yl)spiro[2.3]hexane-5-carbonitrile]",9.00
20,"C[C@H]1CN(c2cc(-n3ncc4ccc(C5(C#N)CC6(CC6)C5)cc43)ncn2)CCO1 [Example 42, (S)-5-(1-(6-(2-methyl-morpholino)pyrimidin-4-yl)-1H-indazol-6-yl)spiro[2.3]hexane-5-carbonitrile]",8.25
21,"CC(C)(O)[C@@H]1CN(c2cc(-n3ncc4ccc(C5(C#N)CC6(CC6)C5)cc43)ncn2)CCO1 [Example 43, (S)-5-(1-(6-(2-(2-hydroxypropan-2-yl)morpholino)pyrimidin-4-yl)-1H-indazol-6-yl)spiro[2.3]hexane-5-carbonitrile]",9.05
22,"N#CC1(c2ccc3cnn(-c4cc(N5CCC(C6COC6)CC5)ncn4)c3c2)CC2(CC2)C1 [Example 44, 5-(1-(6-(4-(oxetan-3-yl)piperidin-1-yl)pyrimidin-4-yl)-1H-indazol-6-yl)spiro[2.3]hexane-5-carbonitrile]",8.30
23,"N#CC1(c2ccc3cnn(-c4cc(N5CCN6CCOC[C@@H]6C5)ncn4)c3c2)CC2(CC2)C1 [Example 45, (S)-5-(1-(6-(hexahydropyrazino[2,1-c][1,4]oxazin-8(1H)-yl)pyrimidin-4-yl)-1H-indazol-6-yl)spiro[2.3]hexane-5-carbonitrile]",8.70
24,"N#CC1(c2ccc3cnn(-c4cc(N5CCN6CCOC[C@H]6C5)ncn4)c3c2)CC2(CC2)C1 [Example 46, (R)-5-(1-(6-(hexahydropyrazino[2,1-c][1,4]oxazin-8(1H)-yl)pyrimidin-4-yl)-1H-indazol-6-yl)spiro[2.3]hexane-5-carbonitrile]",8.15
25,"Cc1nc(N2CCN3CCOC[C@@H]3C2)cc(-n2ncc3ccc(C4(C#N)CC5(CC5)C4)cc32)n1 [Example 47, (S)-5-(1-(6-(hexahydropyrazino[2,1-c][1,4]oxazin-8(1H)-yl)-2-methylpyrimidin-4-yl)-1H-indazol-6-yl)spiro[2.3]hexane-5-carbonitrile]",8.49
26,"Cc1nc(N2CCN3CCOC[C@@H]3C2)cc(-n2ncc3cnc(C4(C#N)CC5(CC5)C4)cc32)n1 [Example 48, (S)-5-(1-(6-(hexahydropyrazino[2,1-c][1,4]oxazin-8(1H)-yl)-2-methylpyrimidin-4-yl)-1H-pyrazolo[4,3-c]pyridin-6-yl)spiro[2.3]hexane-5-carbonitrile]",7.69
